Measured values reported in patent publication US11679112B2, “Cancer treatments using combinations of CDK and ERK inhibitors” (BIOMED VALLEY DISCOVERIES, INC., priority 2013, dated 2023).

Assays:
A549 cells [1] = assay: Single agent proliferation assay, CellTiter-Glo, A549; type: cell-based; details: Homo sapiens; for IC50: 72 h, read-out: Relative IC50
Procedure: (§1) Cells were seeded in 96-well plates at the densities indicated in Table 4 in RPMI containing 10% FBS and allowed to adhere overnight prior to addition of compound or vehicle control. Compounds were prepared from DMSO stocks to give the desired final concentrations. The final DMSO concentration was constant at 0.1%. Test compounds were incubated with the cells for 72 h at 37° C., 5% CO2 in a humidified atmosphere. CellTiter-Glo® reagent (Promega, Madison, Wis.) was added according to manufacturer's instructions and luminescence detected using the BMG FLUOstar plate reader (BMG Labtech, Ortenberg, Germany). A duplicate set of assay plates was incubated with 10 μg/ml Hoechst 33342 stain (Invitrogen, Grant Island, N.Y.) in complete growth medium for 1 h at 37° C., 5% CO2 in a humidified atmosphere. The medium was then removed and replaced with PBS and fluorescence detected using a BMG FLUOstar Omega plate reader (BMG labtech, Ortenberg, Germany). The average media only background value was deducted and the data analysed using a 4-parameter logistic equation in GraphPad Prism (GraphPad Software, La Jolla, Calif.).
(§2) The effects of BVD-523, the CDK4/6 inhibitors, another ERK inhibitor (SCH772984), and a reference MEK inhibitor (Trametinib), as single agents on cell viability was assessed after 72 h using two methods (FIGS. 2A-2L). The first method was by quantitating cellular ATP levels using CellTiter-Glo® (Promega, Madison, Wis.). The second method was by quantitating total amount of DNA in an assay well after staining the DNA with Hoechst stain.

A549 cells [2] = assay: Single agent proliferation assay, Hoechst stain, A549; type: cell-based; details: Homo sapiens, 72 h, read-out: Relative IC50
Procedure: as §1, §2

H2122 cells [3] = assay: Single agent proliferation assay, CellTiter-Glo, H2122; type: cell-based; details: Homo sapiens; for IC50: NCI-H2122, 72 h, read-out: Relative IC50
Procedure: as §1, §2

H2122 cells [4] = assay: Single agent proliferation assay, Hoechst stain, H2122; type: cell-based; details: Homo sapiens, NCI-H2122, 72 h, read-out: Relative IC50
Procedure: as §1, §2

H1437 cells [5] = assay: Single agent proliferation assay, CellTiter-Glo, H1437; type: cell-based; details: Homo sapiens; for IC50: NCI-H1437, 72 h, read-out: Relative IC50; for inhibition at 3 µM: NCI-H1437, @3 μM
Procedure: as §1, §2

H1437 cells [6] = assay: Single agent proliferation assay, Hoechst stain, H1437; type: cell-based; details: Homo sapiens; for IC50: NCI-H1437, 72 h, read-out: Relative IC50
Procedure: as §1, §2

H226 cells [7] = assay: Single agent proliferation assay, CellTiter-Glo, H226; type: cell-based; details: Homo sapiens; for inhibition at 10 µM: NCI-H226, @10 μM; for inhibition at 3 µM: NCI-H226, @3 μM
Procedure: as §1, §2

H226 cells [8] = assay: Single agent proliferation assay, Hoechst stain, H226; type: cell-based; details: Homo sapiens; for IC50: NCI-H226, 72 h, read-out: Relative IC50
Procedure: as §1, §2

[9] = system: MAPK signaling components in A375 cells; assay: Western blot of MAPK, cell cycle and apoptosis signaling in A375 cells; type: cell-based, human
Procedure: (§3) For Western blot studies, HCT116 cells (5×10^6) were seeded into 10 cm dishes in McCoy's 5A plus 10% FBS. A375 cells (2.5×10^6) were seeded into 10 cm dishes in DMEM plus 10% FBS. Cells were allowed to adhere overnight prior to addition of the indicated amount of test compound (BVD-523) or vehicle control. Cells were treated for either 4 or 24 hours before isolation of whole-cell protein lysates, as specified below. Cells were harvested by trypsinisation, pelleted and snap frozen. Lysates were prepared with RIPA (Radio-Immunoprecipitation Assay) buffer, clarified by centrifugation and quantitated by bicinchoninic acid assay (BCA) assay. 20-50 μg of protein was resolved by SDS-PAGE electrophoresis, blotted onto PVDF membrane and probed using the antibodies detailed in Table 2 (for the 4-hour treatment) and Table 3 (for the 24-hour treatment) below.

[10] = system: MAPK signaling in HCT-116 cells; assay: Western blot of MAPK signaling in HCT116 cells; type: cell-based, human; details: HCT116, 4 hours, micromolar concentrations
Procedure: as §3

ERK = details: Morris et al., 2013; cited from earlier work
[11] = read-out: Maximal percentage inhibition

SMILES	IC50 (A549 cells [1])	IC50 (A549 cells [2])	IC50 (H2122 cells [3])	IC50 (H2122 cells [4])	IC50 (H1437 cells [5])	IC50 (H1437 cells [6])	IC50 (H226 cells [8])	inhibition at 10 µM (H226 cells [7]; [11])	inhibition at 3 µM (H1437 cells [5]; [11])	inhibition at 3 µM (H226 cells [7]; [11])	further results
CC(C)Nc1cc(-c2c[nH]c(C(=O)N[C@H](CO)c3cccc(Cl)c3)c2)c(Cl)cn1 [BVD-523]	730 nM	590 nM	450 nM	450 nM	1200 nM	1400 nM	–	34%	–	–	inhibition at 10 µM (H226 cells [8]; NCI-H226, @10 μM, read-out: Maximal percentage inhibition): 58%; cyclin-D1 level ([9]; 24 hours): greatly reduced; phosphorylation of ERK-dependent residues (T359/S363) in RSK 1 and 2 proteins ([9]; A375, 4 hours, micromolar concentrations): reduced; Bim-EL level ([9]; A375, prolonged treatment): increased; increased apoptosis (PARP cleavage) ([9]; A375, prolonged treatment): not observed; MAPK feedback phosphatase DUSP6 level ([9]; BRAF mutant cell line, 24 hours): greatly reduced; concentrations required to induce changes in substrate phosphorylation and effector targets of ERK ([9]; RAF and RAS mutant cancer cells, acute and prolonged treatment): low micromolar range; effect on autophosphorylation of ERK ([9]; see FIG. 1): allows for the autophosphorylation of ERK while still inhibiting ERK; phosphorylation of ERK-dependent residues (T359/S363) in RSK 1 and 2 proteins [10]: reduced
CC(=O)O[C@H]1C(=O)[C@@]2(C)[C@H]([C@H](OC(=O)c3ccccc3)[C@]3(O)C[C@H](OC(=O)[C@H](O)[C@@H](NC(=O)c4ccccc4)c4ccccc4)C(C)=C1C3(C)C)[C@]1(OC(C)=O)CO[C@@H]1C[C@@H]2O [Paclitaxcel, Paclitaxel]	3 nM	2 nM	3 nM	2 nM	7 nM	3 nM	3 nM	–	–	–	IC50 (H226 cells [7]; NCI-H226, 72 h, read-out: Relative IC50): 3 nM
O=C(Nc1ccc2[nH]nc(-c3ccncc3)c2c1)[C@@H]1CCN(CC(=O)N2CCN(c3ccc(-c4ncccn4)cc3)CC2)C1 [SCH772984]	1100 nM	740 nM	630 nM	530 nM	–	–	–	–	57%	35%	inhibition at 3 µM (H1437 cells [6]; NCI-H1437, @3 μM, read-out: Maximal percentage inhibition): 63%; inhibition at 3 µM (H226 cells [8]; NCI-H226, @3 μM, read-out: Maximal percentage inhibition): 49%; effect on autophosphorylation of ERK (ERK): inhibits autophosphorylation of ERK

Now from value to compound, other results behind:

IC50 (A549 cells [1])	IC50 (A549 cells [2])	IC50 (H2122 cells [3])	IC50 (H2122 cells [4])	IC50 (H1437 cells [5])	IC50 (H1437 cells [6])	IC50 (H226 cells [8])	SMILES	inhibition at 10 µM (H226 cells [7]; [11])	inhibition at 3 µM (H1437 cells [5]; [11])	inhibition at 3 µM (H226 cells [7]; [11])	further results
–	700 nM	–	450 nM	–	2800 nM	370 nM	CN(C)C(=O)c1cc2cnc(Nc3ccc(N4CCNCC4)cn3)nc2n1C1CCCC1 [LEE-011]	32%	–	–	inhibition at 10 µM (A549 cells [1]; @10 μM, read-out: Maximal percentage inhibition): 49%; inhibition at 10 µM (H2122 cells [3]; NCI-H2122, @10 μM, read-out: Maximal percentage inhibition): 44%; inhibition at 10 µM (H1437 cells [5]; NCI-H1437, @10 μM, read-out: Maximal percentage inhibition): 30%
–	130 nM	–	150 nM	–	220 nM	56 nM	CC(=O)c1c(C)c2cnc(Nc3ccc(N4CCNCC4)cn3)nc2n(C2CCCC2)c1=O [Palbociclib]	–	29%	20%	inhibition at 3 µM (A549 cells [1]; @3 μM, read-out: Maximal percentage inhibition): 41%; inhibition at 3 µM (H2122 cells [3]; NCI-H2122, @3 μM, read-out: Maximal percentage inhibition): 48%
5 nM	5 nM	3 nM	3 nM	2 nM	3 nM	2 nM	CC(=O)Nc1cccc(-n2c(=O)n(C3CC3)c(=O)c3c(Nc4ccc(I)cc4F)n(C)c(=O)c(C)c32)c1 [Trametinib]	–	–	–	inhibition at 1 µM (H226 cells [7]; NCI-H226, @1 μM, read-out: Maximal percentage inhibition): 57%
